Values after ≈ are worked out from the molar mass of the structure shown. Active and inactive are the calls of the source. No cut-off for these calls is given here.

Assay [1] has as its system 1A9. As to the kind of experiment: Cytotoxicity against human ovarian cancer (1A9) cell lines. The class given is functional. As to conditions: read-out: ED50 (the source's name).
The subject of assay [2] is A549. The assay is described as follows: Cytotoxicity against human lung carcinoma (A549) cell lines. The class given is functional. As to conditions: read-out: ED50 (the source's name).
For assay [3], the system named is CAKI-1. The assay is described as follows: Cytotoxicity against human renal cancer(CAKI-1) cell lines; […]. The class given is functional, cell-based.
The test system of assay [4] is KB. The assay is described as follows: Cytotoxicity against human epidermoid carcinoma of the nasopharynx(KB) cell lines. As to conditions: read-out: ED50 (the source's name). The class given is functional.
For assay [5], the system named is MCF7. As to the kind of experiment: Cytotoxicity against human breast cancer(MCF-7) cell lines. The class given is functional. As to conditions: read-out: ED50 (the source's name).
The subject of assay [6] is SAOS-2. The assay is described as follows: Cytotoxicity against human osteosarcoma (SaOS-2) cell lines. The class given is functional. As to conditions: read-out: ED50 (the source's name).
The test system of assay [7] is A549. As to the kind of experiment: Cytotoxicity against human lung carcinoma (A549) cell lines; Not active. The class given is functional, cell-based.
For assay [8], the system named is CAKI-1. As to the kind of experiment: Cytotoxicity against human renal cancer(CAKI-1) cell lines. The class given is functional. Particulars: read-out: ED50 (the source's name).
Assay [9] relates to HCT-8. The assay is described as follows: Cytotoxicity against human ileocecal carcinoma (HCT-8) cell lines. The class given is functional. As to conditions: read-out: ED50 (the source's name).
Assay [10] concerns A549. The assay is described as follows: Percentage inhibition of human lung carcinoma (A549) cell lines. The class given is functional.
Assay [11] has as its system MCF7. As to the kind of experiment: Percentage inhibition of human breast cancer(MCF-7) cell lines. The class given is functional.
Assay [12] deals with SAOS-2. The assay is described as follows: Percentage inhibition of human osteosarcoma (SaOS-2) cell lines. The class given is functional.
Assay [13] relates to 1A9. As to the kind of experiment: Percentage inhibition of human ovarian cancer (1A9) cell lines. The class given is functional.
In assay [14] the test system is CAKI-1. As to the kind of experiment: Percentage inhibition of human renal cancer(CAKI-1) cell lines. The class given is functional.
In assay [15] the test system is KB. As to the kind of experiment: Percentage inhibition of human epidermoid carcinoma of the nasopharynx(KB) cell lines. The class given is functional.
In assay [16] the test system is HCT-8. As to the kind of experiment: Percentage inhibition human ileocecal carcinoma (HCT-8) cell lines. The class given is functional.

For the compound `CC(=O)Oc1ccc(/C=C/c2cc(OC(C)=O)cc3c2[C@H](c2cc(OC(C)=O)cc(OC(C)=O)c2)[C@@H](c2ccc(OC(C)=O)cc2)O3)cc1`, the EC50 in the assay on 1A9 [1] was found to be 5.8 µg/mL (≈ 8.73 µM); in the assay with A549 [2], 20 µg/mL (≈ 30.1 µM); in the assay with KB [4] it was 7.5 µg/mL (≈ 11.3 µM); in the assay with MCF7 [5], 4 µg/mL (≈ 6.02 µM); in the assay on SAOS-2 [6], 7.5 µg/mL (≈ 11.3 µM). In the assay on CAKI-1 [3], the ED50 result was “inactive”.

Consider `CC(=O)Oc1ccc([C@@H]2c3c(OC(C)=O)cc(OC(C)=O)cc3[C@H]3[C@H](c4ccc(OC(C)=O)cc4)c4c(OC(C)=O)cc(OC(C)=O)cc4[C@@H]23)cc1`, for which the EC50 in the assay with 1A9 [1] was found to be 3.2 µg/mL (≈ 4.53 µM); with CAKI-1 [8], 8 µg/mL (≈ 11.3 µM); with HCT-8 [9] it was 8 µg/mL (≈ 11.3 µM); with KB [4], 1.6 µg/mL (≈ 2.26 µM); in the assay with MCF7 [5], 7.4 µg/mL (≈ 10.5 µM). In the assay on A549 [7], the ED50 result was “inactive”.

The Inhibition is the change of the read-out against control, counted positive when it falls. Regarding `Oc1ccc([C@H]2c3c(O)cc(O)cc3[C@H]3c4c(cc(O)cc4[C@@H]2O)O[C@@H]3c2ccc(O)cc2)cc1` [AMPELOPSIN A], the EC50 in the assay on 1A9 [1], in the assay with A549 [2], in the assay on CAKI-1 [8], in the assay on KB [4], in the assay with MCF7 [5] and in the assay with SAOS-2 [6] was over 20 µg/mL in each case. For the same compound, the Inhibition was 7% in the assay with A549 [10]; 10% in the assay on MCF7 [11]; 8% in the assay on SAOS-2 [12]; 32% with 1A9 [13]; 38% in the assay with CAKI-1 [14]; 38% in the assay with KB [15].

`CC(=O)Oc1ccc([C@H]2c3c(OC(C)=O)cc(OC(C)=O)cc3[C@H]3c4c(cc(OC(C)=O)cc4[C@@H]2OC(C)=O)O[C@@H]3c2ccc(OC(C)=O)cc2)cc1`: the EC50 in the assay on 1A9 [1] was found to be 0.7 µg/mL (≈ 0.969 µM); with CAKI-1 [8], 4 µg/mL (≈ 5.53 µM); with HCT-8 [9], 4.1 µg/mL (≈ 5.67 µM); in the assay on KB [4] it was 0.6 µg/mL (≈ 0.83 µM); with MCF7 [5], 2 µg/mL (≈ 2.77 µM). Besides, the ED50 result in the assay on A549 [7] was “inactive”.

As for `CC(=O)Oc1ccc([C@@H]2c3c(OC(C)=O)cc(OC(C)=O)cc3[C@@H]3c4c(OC(C)=O)cc(OC(C)=O)cc4C2[C@H]3c2ccc(OC(C)=O)cc2)cc1`, the EC50 was 6 µg/mL (≈ 8.49 µM) with 1A9 [1]; over 10 µg/mL with CAKI-1 [8]; over 10 µg/mL in the assay with HCT-8 [9]; 3 µg/mL (≈ 4.25 µM) in the assay with KB [4]; over 10 µg/mL with MCF7 [5]. The ED50 result in the assay with A549 [7] was “inactive”. Besides, the Inhibition worked out at 36% in the assay on HCT-8 [16], 43% in the assay with MCF7 [11] and 21% with CAKI-1 [14].

As to `Oc1ccc([C@@H]2c3c(O)cc(O)cc3[C@@H]3c4c(cc(O)cc4[C@H]2[C@@H]2c4cc(O)cc5c4[C@@H](c4cc(O)cc(O)c4[C@H]2c2ccc(O)cc2)[C@H](c2ccc(O)cc2)O5)O[C@H]3c2ccc(O)cc2)cc1`, the EC50 in the assay with 1A9 [1] is 7.8 µg/mL (≈ 8.6 µM); in the assay on A549 [2], 4.8 µg/mL (≈ 5.29 µM); in the assay with KB [4] it was 1.2 µg/mL (≈ 1.32 µM); in the assay on MCF7 [5], 4.2 µg/mL (≈ 4.63 µM); with SAOS-2 [6] it was over 20 µg/mL. Besides, the ED50 result in the assay with CAKI-1 [3] is “inactive”. This compound returned an Inhibition in the assay on SAOS-2 [12] of 41%.
